Here are results for five molecules from article PMC10541190 (The Journal of Clinical Investigation, 2023).

As usually defined, the EC50 is the midpoint of the concentration-response curve. In general, viability refers to a read-out of living cells in per cent, often relative to untreated cells.

Data set [1] deals with VEEV (TC-83). The data set is classed as cell-based.
Data set [2] in a line: in vitro. The settings on record: African green monkey; for viability at 0.625 µM / viability at 1.25 µM / viability at 5 µM / viability at 20 µM: Cell viability (%).
The test system of data set [3] is SARS-CoV-2 (USA-WA1/2020). Kind of data set: microbe, parasite or virus in culture. The data set is classed as cell-based. The settings on record: for EC50: Severe acute respiratory syndrome coronavirus 2, Vero, 24 h, read-out: SARS-CoV-2 EC50.
The nature of data set [4]: in vitro. The settings on record: human, Huh7 cell viability (%).
Data set [5] has as its system Vero cells.
Data set [6] is described as follows: in vitro. The settings on record: human, U-87 MG cell viability (%).

“And” between values parts separate entries of the source, which are not always exact repeats. Identical values can stand only once. Like-named read-outs stand apart in the source and are kept apart here. A value given as a limit tells only on which side of the number the result lay.

As to `O=C1NCN(c2ccccc2)C12CCN(CCCC(c1ccc(F)cc1)c1ccc(F)cc1)CC2` [Fluspirilene], in data set [1], the “anti-TC-83 and DENV2 activity compared with anti-SARS-CoV-2 activity” value was “more potent”. In data set [2], this molecule showed a CC50 of over 20 µM. In addition, the EC50 in data set [3] worked out at 15.2 µM. Further, in data set [4], the viability at 0.37 µM is 93.4%; the viability at 3.33 µM was 87.3%; the viability at 10 µM is 70.9%; the viability at […] is 93.9% and 95.5%.

As for `O=C(CCCN1CCC2(CC1)C(=O)NCN2c1ccccc1)c1ccc(F)cc1` [Spipe-rone], in data set [5] (0.625 μM), the “Cell viability (%)” value is 94.16% and 92.89%. The “Cell viability (%)” value in data set [5] (1.25 μM) came to 101.11%. For the same molecule, in data set [5] (5 μM), the “Cell viability (%)” value is 96.86% and 95.76%. Besides, the “Cell viability (%)” value in data set [5] (20 μM) is listed as 101.04%. For the same molecule, in data set [2], the viability at 0.625 µM is 91.9%, the viability at 1.25 µM was found to be 99.9%, the viability at 5 µM was found to be 94.3% and the viability at 20 µM is 97.4%. Besides, in data set [6], the viability at 0.37 µM was 99.2%; the viability at 3.33 µM was 101%; the viability at 10 µM was determined as 97%; the viability at […] is 99.5% and 99.9%. The “SARS-CoV-2 infection (%)” value in data set [3] (0.625 μM) is 124.72% and 114.61% and 131.46%. Besides, the “SARS-CoV-2 infection (%)” value in data set [3] (1.25 μM) was 107.87% and 117.98% and 101.12%. In data set [3] (5 μM), the “SARS-CoV-2 infection (%)” value is 15.17% and 17.19% and 12.81%. Further, the “SARS-CoV-2 infection (%)” value in data set [3] (20 μM) is 0.47% and 0.20% and 0.30%.

On to `COc1ccc2cc1Oc1ccc(cc1)C[C@H]1c3cc(c(OC)cc3CCN1C)Oc1c(OC)c(OC)cc3c1[C@H](C2)N(C)CC3` [Tetran-drine], for which the “Cell viability (%)” value in data set [5] (0.625 μM) was 99.78%; in data set [5] (1.25 μM), 105.40% and 105.65%; in data set [5] (5 μM), 86.02% and 86.44%; in data set [5] (20 μM), 48.98% and 79.18% and 56.10%. In data set [2], the viability at 0.625 µM came to 94.4%. In addition, the viability at 1.25 µM in data set [2] amounted to 101%. For the same molecule, in data set [2], the viability at 5 µM stood at 83.6%. Moreover, the viability at 0.37 µM in data set [6] was determined as 101%. Moreover, the viability at 3.33 µM in data set [6] came to 101%. Besides, the viability at 10 µM in data set [6] was determined as 98.9%. Also, the viability at […] in data set [6] is 105% and 97.8%. The “SARS-CoV-2 infection (%)” value was 107.87% and 117.98% and 101.12% in data set [3] (0.625 μM); 53.93% and 104.49% and 87.64% in data set [3] (1.25 μM); 0.61% and 0.84% and 0.88% in data set [3] (5 μM); 0.00337% in data set [3] (20 μM).

On to `CC(C)(C)c1cc(/C=C(\C#N)C(N)=S)cc(C(C)(C)C)c1O` [Tyrphos-tin AG 879], for which the “Cell viability (%)” value is 83.52% and 84.00% in data set [5] (0.625 μM); 88.30% and 88.47% in data set [5] (1.25 μM); 78.46% and 79.21% in data set [5] (5 μM); 71.26% and 69.85% in data set [5] (20 μM). Further, the viability at 0.625 µM in data set [2] turned out to be 85.5%. Also, the viability at 1.25 µM in data set [2] was found to be 87.2%. For the same molecule, the viability at 5 µM in data set [2] was 78.7%. Besides, the viability at 20 µM in data set [2] came to 71%; in data set [6], 70.1%. For the same molecule, the viability at 0.25 µM in data set [6] came out at 96.7%. Besides, the viability at 0.74 µM in data set [6] was 85%. In data set [6], the viability at 2.22 µM turned out to be 85.2%. In addition, in data set [6], the viability at 6.67 µM was found to be 78.3%. Further, the “SARS-CoV-2 infection (%)” value in data set [3] (0.625 μM) is 47.19% and 30.34% and 33.71%; in data set [3] (1.25 μM), 7.75% and 5.73% and 5.06%; in data set [3] (5 μM) it was 0.40% and 0.44% and 0.27%; in data set [3] (20 μM) it was 0.00337%.

Regarding `CC(C)(C)c1cc(C=C(C#N)C#N)cc(C(C)(C)C)c1O` [Tyrphostin A9], in data set [1], the “anti-TC-83 and DENV2 activity compared with anti-SARS-CoV-2 activity” value is on record as “more potent”. The same molecule displayed a CC50 in data set [2] of over 20 µM. Moreover, in data set [6], the viability at 0.25 µM is 96.7%, the viability at 0.74 µM was 85%, the viability at 2.22 µM stood at 85.2% and the viability at 6.67 µM stood at 78.3%. In data set [6], the viability at 20 µM was determined as 70.1%. The EC50 in data set [3] is 16.5 µM. Moreover, in data set [4], the viability at 0.37 µM turned out to be 101%; the viability at 3.33 µM was 89.2%; the viability at 10 µM was 88%; the viability at […] was 90.8% and 98.7%.
